Experimental data as given in patent US20230114728A1 (Venatorx Pharmaceuticals, Inc., priority 2019, published 2023).
≈ marks a conversion by molar mass, not a printed value.

Experiments:
[1] = system: K. pneumoniae 848844 producing SHV-11 and KPC-2; assay: Broth microdilution MIC in CAMHB; type: cell-based; conditions: Klebsiella pneumoniae, read-out: Minimum Inhibitory Concentration, K. pneumoniae 848844
In short: (§1)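 Colonies from cation-adjusted Mueller Hinton agar are grown in broth (3-5 h, 37° C), adjusted by OD600, and added at 2-8×10^5 CFU/mL to 2-fold compound dilutions. After 16-20 h at 37° C, the lowest concentration without growth is taken as MIC.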

E. coli AG100A = assay: Broth microdilution MIC in CAMHB; type: cell-based; conditions: Escherichia coli, read-out: Minimum Inhibitory Concentration, E. coli AG100A
In short: as §1

[2] = system: K. pneumoniae UMM producing SHV-5 and KPC-2; assay: Broth microdilution MIC in CAMHB; type: cell-based; conditions: Klebsiella pneumoniae, read-out: Minimum Inhibitory Concentration, K. pneumoniae UMM
In short: as §1

E. coli ATCC 25922 = assay: Broth microdilution MIC in CAMHB; type: cell-based; conditions: Escherichia coli, ATCC25922; E. coli ATCC 25922; MHB; read-out: Minimum Inhibitory Concentration, E. coli 25922
In short: as §1

P. aeruginosa ATCC 35151 = assay: Broth microdilution MIC in CAMHB; type: cell-based; conditions: Pseudomonas aeruginosa, ATCC35151; MHB; hyper-permeable strain; read-out: Minimum Inhibitory Concentration, P. aeruginosa ATCC 35151
In short: as §1

[3] = system: P. aeruginosa (ΔmexAB-oprM); assay: Broth microdilution MIC in CAMHB; type: cell-based; conditions: Pseudomonas aeruginosa, read-out: Minimum Inhibitory Concentration, P. aeruginosa ΔmexAB-OprM
In short: as §1

P. aeruginosa ATCC 27853 = assay: Broth microdilution MIC in CAMHB; type: cell-based; conditions: Pseudomonas aeruginosa, ATCC27853; MHB; read-out: Minimum Inhibitory Concentration, P. aeruginosa ATCC 27853
In short: as §1

P. aeruginosa PBP3 = molecular target: T1, P. aeruginosa PBP3 (Pseudomonas aeruginosa, UniProt G3XD46); assay: Bocillin-FL fluorescence polarization competition binding assay, P. aeruginosa PBP3; conditions: fluorescence polarization competition binding assay using Bocillin-FL
T1 construct: made in house
In short: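 Binding of boronic acid inhibitors to purified Pseudomonas aeruginosa (PA01) PBP3 was measured by fluorescence polarization competition with Bocillin-FL, a fluorescent penicillin V. Reactions of 80 μl contained 0.75 μM PBP3 and 0.1 μM Bocillin-FL in 50 mM Hepes (pH 8.0), 300 mM NaCl and 5% (v/v) glycerol, in black 384-well plates. FP (Excitation 490 nm, Emission 520 nm) was read for up to 60 minutes. EC50 is the concentration that halves PBP-bound Bocillin-FL.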

T1 sequence (G3XD46 whole entry): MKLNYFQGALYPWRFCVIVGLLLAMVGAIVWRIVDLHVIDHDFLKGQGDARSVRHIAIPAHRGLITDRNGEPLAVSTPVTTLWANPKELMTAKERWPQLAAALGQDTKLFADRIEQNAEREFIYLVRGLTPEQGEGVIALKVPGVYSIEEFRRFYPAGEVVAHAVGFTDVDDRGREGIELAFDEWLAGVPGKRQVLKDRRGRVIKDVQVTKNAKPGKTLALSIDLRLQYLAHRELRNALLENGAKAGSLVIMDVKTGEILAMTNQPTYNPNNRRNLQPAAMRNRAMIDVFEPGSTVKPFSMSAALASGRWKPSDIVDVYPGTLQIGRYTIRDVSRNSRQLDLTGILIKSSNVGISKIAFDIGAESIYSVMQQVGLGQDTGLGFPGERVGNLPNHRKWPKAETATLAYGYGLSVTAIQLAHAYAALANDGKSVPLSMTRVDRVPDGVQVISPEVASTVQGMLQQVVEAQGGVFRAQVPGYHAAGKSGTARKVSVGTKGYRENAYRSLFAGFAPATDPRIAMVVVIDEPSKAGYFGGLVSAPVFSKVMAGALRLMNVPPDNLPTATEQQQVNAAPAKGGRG

| SMILES | MIC [1] | MIC (E. coli AG100A) | MIC [2] | MIC (E. coli ATCC 25922) | MIC (P. aeruginosa ATCC 35151) | MIC [3] | MIC (P. aeruginosa ATCC 27853) | P. aeruginosa PBP3 Potency (P. aeruginosa PBP3) |
| --- | --- | --- | --- | --- | --- | --- | --- | --- |
| NCCCN1CCN(C(=O)N[C@@H](C(=O)N[C@H]2Cc3cccc(C(=O)O)c3OB2O)c2cccc(NS(N)(=O)=O)c2)C(=O)C1=O [Example 117, (R)-3-((R)-2-(4-(3-aminopropyl)-2,3-dioxopiperazine-1-carboxamido)-2-(3-(sulfamoylamino)phenyl)acetamido)-2-hydroxy-3,4-dihydro-2H-benzo[e][1,2]oxaborinine-8-carboxylic acid] | 32 to 64 µg/mL (≈ 50.7 to 101 µM) | 2 to 4 µg/mL (≈ 3.17 to 6.33 µM) | 32 to 64 µg/mL (≈ 50.7 to 101 µM) | 32 to 64 µg/mL (≈ 50.7 to 101 µM) | < 0.25 µg/mL | 2 to 4 µg/mL (≈ 3.17 to 6.33 µM) | 32 to 64 µg/mL (≈ 50.7 to 101 µM) | D (D represents a potency <10 μM) |
| NCCCN1CCN(C(=O)N[C@H](C(=O)N[C@H]2Cc3cccc(C(=O)O)c3OB2O)c2cccc(NS(N)(=O)=O)c2)C(=O)C1=O [Example 118, (R)-3-((S)-2-(4-(3-aminopropyl)-2,3-dioxopiperazine-1-carboxamido)-2-(3-(sulfamoylamino)phenyl)acetamido)-2-hydroxy-3,4-dihydro-2H-benzo[e][1,2]oxaborinine-8-carboxylic acid] | > 128 µg/mL | 2 to 4 µg/mL (≈ 3.17 to 6.33 µM) | 32 to 64 µg/mL (≈ 50.7 to 101 µM) | 32 to 64 µg/mL (≈ 50.7 to 101 µM) | 0.5 to 1 µg/mL (≈ 0.792 to 1.58 µM) | 8 to 16 µg/mL (≈ 12.7 to 25.3 µM) | > 128 µg/mL | D (D represents a potency <10 μM) |
| NC1(CN2CCN(C(=O)NC(C(=O)N[C@H]3Cc4cccc(C(=O)O)c4OB3O)c3cccc(NS(N)(=O)=O)c3)C(=O)C2=O)CC1 (stereo partly drawn) [Example 120, (3R)-3-(2-(4-((1-aminocyclopropyl)methyl)-2,3-dioxopiperazine-1-carboxamido)-2-(3-(sulfamoylamino)phenyl)acetamido)-2-hydroxy-3,4-dihydro-2H-benzo[e][1,2]oxaborinine-8-carboxylic acid] | > 128 µg/mL | 8 to 16 µg/mL (≈ 12.4 to 24.9 µM) | 32 to 64 µg/mL (≈ 49.7 to 99.5 µM) | > 128 µg/mL | 0.5 to 1 µg/mL (≈ 0.777 to 1.55 µM) | 8 to 16 µg/mL (≈ 12.4 to 24.9 µM) | > 128 µg/mL | D (D represents a potency <10 μM) |
| O=C(O)c1c(F)ccc2c1OB(O)[C@@H](NC(=O)C(NC(=O)N1CCN(CCF)C(=O)C1=O)c1c(F)cc(O)cc1F)C2 (stereo partly drawn) [Example 129, (3R)-3-(2-(2,6-difluoro-4-hydroxyphenyl)-2-(4-(2-fluoroethyl)-2,3-dioxopiperazine-1-carboxamido)acetamido)-7-fluoro-2-hydroxy-3,4-dihydro-2H-benzo[e][1,2]oxaborinine-8-carboxylic acid] | 32 to 64 µg/mL (≈ 53.7 to 107 µM) | 8 to 16 µg/mL (≈ 13.4 to 26.8 µM) | 32 to 64 µg/mL (≈ 53.7 to 107 µM) | 32 to 64 µg/mL (≈ 53.7 to 107 µM) | 0.5 to 1 µg/mL (≈ 0.839 to 1.68 µM) | 32 to 64 µg/mL (≈ 53.7 to 107 µM) | > 128 µg/mL | D (D represents a potency <10 μM) |
| CCN1CCN(C(=O)NC(C(=O)N[C@H]2Cc3ccc(F)c(C(=O)O)c3OB2O)c2c(F)cc(O)cc2F)C(=O)C1=O (stereo partly drawn) [Example 130, (3R)-3-(2-(2,6-difluoro-4-hydroxyphenyl)-2-(4-ethyl-2,3-dioxopiperazine-1-carboxamido)acetamido)-7-fluoro-2-hydroxy-3,4-dihydro-2H-benzo[e][1,2]oxaborinine-8-carboxylic acid] | 32 to 64 µg/mL (≈ 55.3 to 111 µM) | 8 to 16 µg/mL (≈ 13.8 to 27.7 µM) | 8 to 16 µg/mL (≈ 13.8 to 27.7 µM) | 32 to 64 µg/mL (≈ 55.3 to 111 µM) | < 0.25 µg/mL | 32 to 64 µg/mL (≈ 55.3 to 111 µM) | > 128 µg/mL | D (D represents a potency <10 μM) |
| CCN1CCN(C(=O)NC(C(=O)N[C@H]2Cc3cccc(C(=O)O)c3OB2O)c2cc(F)c(C(=O)O)cc2F)C(=O)C1=O (stereo partly drawn) [Example 137, (3R)-3-(2-(4-carboxy-2,5-difluorophenyl)-2-(4-ethyl-2,3-dioxopiperazine-1-carboxamido)acetamido)-2-hydroxy-3,4-dihydro-2H-benzo[e][1,2]oxaborinine-8-carboxylic acid] | > 128 µg/mL | 8 to 16 µg/mL (≈ 13.6 to 27.2 µM) | 32 to 64 µg/mL (≈ 54.4 to 109 µM) | 32 to 64 µg/mL (≈ 54.4 to 109 µM) | 0.5 to 1 µg/mL (≈ 0.85 to 1.7 µM) | 8 to 16 µg/mL (≈ 13.6 to 27.2 µM) | > 128 µg/mL | D (D represents a potency <10 μM) |
| CCN1CCN(C(=O)NC(C(=O)N[C@H]2Cc3cccc(C(=O)O)c3OB2O)c2cc(Cl)c(C(=O)O)cc2F)C(=O)C1=O (stereo partly drawn) [Example 138, (3R)-3-(2-(4-carboxy-5-chloro-2-fluorophenyl)-2-(4-ethyl-2,3-dioxopiperazine-1-carboxamido)acetamido)-2-hydroxy-3,4-dihydro-2H-benzo[e][1,2]oxaborinine-8-carboxylic acid] | > 128 µg/mL | 8 to 16 µg/mL (≈ 13.2 to 26.5 µM) | 32 to 64 µg/mL (≈ 52.9 to 106 µM) | 32 to 64 µg/mL (≈ 52.9 to 106 µM) | 0.5 to 1 µg/mL (≈ 0.827 to 1.65 µM) | 32 to 64 µg/mL (≈ 52.9 to 106 µM) | > 128 µg/mL | D (D represents a potency <10 μM) |
| CCN1CCN(C(=O)NC(C(=O)N[C@H]2Cc3cccc(C(=O)O)c3OB2O)c2cc(F)c(C(=O)O)c(F)c2)C(=O)C1=O (stereo partly drawn) [Example 141, (3R)-3-(2-(4-carboxy-3,5-difluorophenyl)-2-(4-ethyl-2,3-dioxopiperazine-1-carboxamido)acetamido)-2-hydroxy-3,4-dihydro-2H-benzo[e][1,2]oxaborinine-8-carboxylic acid] | > 128 µg/mL | 2 to 4 µg/mL (≈ 3.4 to 6.8 µM) | 32 to 64 µg/mL (≈ 54.4 to 109 µM) | 32 to 64 µg/mL (≈ 54.4 to 109 µM) | < 0.25 µg/mL | 32 to 64 µg/mL (≈ 54.4 to 109 µM) | > 128 µg/mL | D (D represents a potency <10 μM) |
| NCCN1CCN(C(=O)NC(C(=O)N[C@H]2Cc3cccc(C(=O)O)c3OB2O)c2ccc(C(=O)O)cc2O)C(=O)C1=O (stereo partly drawn) [Example 142, (3R)-3-(2-(4-(2-aminoethyl)-2,3-dioxopiperazine-1-carboxamido)-2-(4-carboxy-2-hydroxyphenyl)acetamido)-2-hydroxy-3,4-dihydro-2H-benzo[e][1,2]oxaborinine-8-carboxylic acid] | > 128 µg/mL | 32 to 64 µg/mL (≈ 54.9 to 110 µM) | 32 to 64 µg/mL (≈ 54.9 to 110 µM) | > 128 µg/mL | 2 to 4 µg/mL (≈ 3.43 to 6.86 µM) | > 128 µg/mL | > 128 µg/mL | C (C represents a potency between 10 and 30 μM) |
| CCN1CCN(C(=O)NC(C(=O)N[C@H]2Cc3cccc(C(=O)O)c3OB2O)c2ccc(C(=O)O)cc2F)C(=O)C1=O (stereo partly drawn) [Example 145, (3R)-3-(2-(4-carboxy-2-fluorophenyl)-2-(4-ethyl-2,3-dioxopiperazine-1-carboxamido)acetamido)-2-hydroxy-3,4-dihydro-2H-benzo[e][1,2]oxaborinine-8-carboxylic acid] | > 128 µg/mL | 8 to 16 µg/mL (≈ 14 to 28.1 µM) | 32 to 64 µg/mL (≈ 56.1 to 112 µM) | 32 to 64 µg/mL (≈ 56.1 to 112 µM) | < 0.25 µg/mL | 8 to 16 µg/mL (≈ 14 to 28.1 µM) | > 128 µg/mL | D (D represents a potency <10 μM) |
| CCN1CCN(C(=O)NC(C(=O)N[C@H]2Cc3cccc(C(=O)O)c3OB2O)c2c(Cl)cc(C(=O)O)cc2Cl)C(=O)C1=O (stereo partly drawn) [Example 150, (3R)-3-(2-(4-carboxy-2,6-dichlorophenyl)-2-(4-ethyl-2,3-dioxopiperazine-1-carboxamido)acetamido)-2-hydroxy-3,4-dihydro-2H-benzo[e][1,2]oxaborinine-8-carboxylic acid] | > 128 µg/mL | 32 to 64 µg/mL (≈ 51.5 to 103 µM) | > 128 µg/mL | > 128 µg/mL | 0.5 to 1 µg/mL (≈ 0.805 to 1.61 µM) | > 128 µg/mL | > 128 µg/mL | D (D represents a potency <10 μM) |
| NCCN1CCN(C(=O)NC(C(=O)N[C@H]2Cc3cccc(C(=O)O)c3OB2O)c2ccc(C(=O)O)c(Cl)c2)C(=O)C1=O (stereo partly drawn) [Example 153, (3R)-3-(2-(4-(2-aminoethyl)-2,3-dioxopiperazine-1-carboxamido)-2-(4-carboxy-3-chlorophenyl)acetamido)-2-hydroxy-3,4-dihydro-2H-benzo[e][1,2]oxaborinine-8-carboxylic acid] | > 128 µg/mL | 8 to 16 µg/mL (≈ 13.3 to 26.6 µM) | 32 to 64 µg/mL (≈ 53.2 to 106 µM) | 32 to 64 µg/mL (≈ 53.2 to 106 µM) | 0.5 to 1 µg/mL (≈ 0.831 to 1.66 µM) | 8 to 16 µg/mL (≈ 13.3 to 26.6 µM) | 32 to 64 µg/mL (≈ 53.2 to 106 µM) | D (D represents a potency <10 μM) |
| O=C(O)c1cccc2c1OB(O)[C@@H](NC(=O)C(NC(=O)N1CCNC1=O)c1c(F)cc(O)cc1F)C2 (stereo partly drawn) [Example 156, (3R)-3-(2-(2,6-difluoro-4-hydroxyphenyl)-2-(2-oxoimidazolidine-1-carboxamido)acetamido)-2-hydroxy-3,4-dihydro-2H-benzo[e][1,2]oxaborinine-8-carboxylic acid] | 32 to 64 µg/mL (≈ 63.5 to 127 µM) | 2 to 4 µg/mL (≈ 3.97 to 7.93 µM) | 32 to 64 µg/mL (≈ 63.5 to 127 µM) | 32 to 64 µg/mL (≈ 63.5 to 127 µM) | 0.5 to 1 µg/mL (≈ 0.992 to 1.98 µM) | 8 to 16 µg/mL (≈ 15.9 to 31.7 µM) | > 128 µg/mL | D (D represents a potency <10 μM) |
